According to PMC7367283, “A PIP2 substitute mediates voltage sensor-pore coupling in KCNQ activation” (Communications Biology, 2020):

Molecular target: pseudo wild-type KCNQ1 (with mutations C214A/G219C/C331A) (Homo sapiens, UniProt P51787, C214A/C331A/G219C)
Experiment: Voltage-clamp fluorometry (VCF) of pseudo WT KCNQ1 in Xenopus oocytes
Assay type: cell-based
Conditions: for G/Gmax Mean: Fig. 3g; for F/Fmax Mean: Fig. 3i
From the text: We employed voltage-clamp fluorometry (VCF) to measure the effects of CP1 on voltage-sensor activation. The emission (F) of Alexa 488 C5 maleimide attached to the S3–S4 linker, at residue C219, of the pseudo wild-type KCNQ1 (with mutations C214A/G219C/C331A) reported VSD movements in response to voltage changes, while the ionic current reported pore opening[45] (Fig. 3f, h). Similar to the WT KCNQ1, the G–V relation of the pseudo WT KCNQ1 shifted to negative voltages by −53.3 ± 3.1 mV in the presence of 10 µM CP1 (Fig. 3g). […] However, the F–V relationship shifted only by −17.3 ± 3.6 mV. […] (Supplementary Fig. 3). […] It is also apparent that at extreme negative voltages ≤ −130 mV, where the voltage sensor seemed not activated (F ~ 0, Fig. 3i), a fraction of the channels was constitutively open (G > 0, Fig. 3b, g).
Oocytes were labeled on ice for 45 min with 10 μM Alexa 488 C5 maleimide (Molecular Probes, Eugene, OR) in high K^+ solution (in mM: 98 KCl, 1.8 CaCl2, and 5 HEPES, pH 7.6). Then the cells were washed with ND96 solution and kept on ice until recording. A CA-1B amplifier was used to record whole-oocyte currents in ND96 solution. Fluorescent signals were recorded simultaneously using a Pin20A photodiode (OSI Optoelectronics, CA), filtered using a FITC filter cube (Leica, Germany, for Alexa 488), and then amplified using a patch-clamp amplifier (EPC10, HEKA, Germany).

shift of F–V relationship (VSD activation) (10 µM CP1): −17.3 ± 3.6 mV | shift of G–V relation (10 µM CP1): −53.3 ± 3.1 mV | G/Gmax Mean (10 µM CP1, 0 mV): 0.7707 | G/Gmax Mean (10 µM CP1, 10 mV): 0.7200 | G/Gmax Mean (10 µM CP1, 20 mV): 0.6664 | G/Gmax Mean (10 µM CP1, 40 mV): 0.5879 | G/Gmax Mean (10 µM CP1, -10 mV): 0.8231 | G/Gmax Mean (10 µM CP1, -20 mV): 0.8668 | G/Gmax Mean (10 µM CP1, -30 mV): 0.9194 | G/Gmax Mean (10 µM CP1, -40 mV): 0.9570 | G/Gmax Mean (10 µM CP1, -50 mV): 0.9837 | G/Gmax Mean (10 µM CP1, -60 mV): 1.0000 | G/Gmax Mean (10 µM CP1, -70 mV): 0.9888 | G/Gmax Mean (10 µM CP1, -80 mV): 0.9295 | G/Gmax Mean (10 µM CP1, -90 mV): 0.8170 | G/Gmax Mean (10 µM CP1, -100 mV): 0.6596 | G/Gmax Mean (10 µM CP1, -110 mV): 0.4846 | G/Gmax Mean (10 µM CP1, -120 mV): 0.3240 | G/Gmax Mean (10 µM CP1, -130 mV): 0.2412 | G/Gmax Mean (10 µM CP1, -140 mV): 0.1631 | F/Fmax Mean (10 µM CP1, 0 mV): 0.9059 | F/Fmax Mean (10 µM CP1, 10 mV): 0.9298 | F/Fmax Mean (10 µM CP1, 20 mV): 0.9639 | F/Fmax Mean (10 µM CP1, 30 mV): 0.9526 | F/Fmax Mean (10 µM CP1, 40 mV): 1.0000 | F/Fmax Mean (10 µM CP1, -10 mV): 0.8465 | F/Fmax Mean (10 µM CP1, -20 mV): 0.8444 | F/Fmax Mean (10 µM CP1, -30 mV): 0.7943 | F/Fmax Mean (10 µM CP1, -40 mV): 0.7337 | F/Fmax Mean (10 µM CP1, -50 mV): 0.6357 | F/Fmax Mean (10 µM CP1, -60 mV): 0.5712 | F/Fmax Mean (10 µM CP1, -70 mV): 0.4588 | F/Fmax Mean (10 µM CP1, -80 mV): 0.4066 | F/Fmax Mean (10 µM CP1, -90 mV): 0.2751 | F/Fmax Mean (10 µM CP1, -100 mV): 0.1745 | F/Fmax Mean (10 µM CP1, -110 mV): 0.1186 | F/Fmax Mean (10 µM CP1, -120 mV): 0.0457 | F/Fmax Mean (10 µM CP1, -130 mV): 0.0520 | F/Fmax Mean (10 µM CP1, -140 mV): 0.0265
Compound: O=S(=O)([O-])Oc1c(-c2sc3c(ccc4cccc(Cl)c43)c2OS(=O)(=O)[O-])[nH]c2ccc(Br)cc12.[Na+].[Na+] [CP1, DISODIUM 5-BROMO-2-[9-CHLORO-3-(SULFONATOOXY) NAPHTHO [1,2-B] THIEN-2-YL]-1H-INDOL-3-YL SULFATE]
